These results are taken from patent US20100179344A1, “2-Alkylidene-18,19-Dinor-Vitamin D Compounds” (WISCONSIN ALUMNI RESEARCH FOUNDATION, priority 2004, published 2010).

The test system of assay [1] is HL-60 cells. In words: HL-60 cell differentiation (NBT reduction). Format: cell-based, human. As to conditions: FIG. 2; for percent of HL-60 cells induced to differentiate: NBT assay, concentration 1×10^−7M. Here is the method:
The differentiation of HL-60 promyelocytic into monocytes was determined as described by Ostrem et al (J. Biol. Chem. 262, 14164-14171, 1987).
The study drugs were dissolved in ethanol and the concentrations determined using UV spectrophotometry (2MD:molar extinction coefficient=42,000 and Imax=252 nm; 1,25(OH)2D3:molar extinction=18,200 and Imax=265 nm). Serial dilutions were prepared so that a range of drug concentrations could be tested without changing the final concentration of ethanol (<0.2%) present in the cell cultures.
Human promyelocytic leukemia (HL60) cells were grown in RPMI-1640 medium containing 10% fetal bovine serum. The cells were incubated at 37° C. in the presence of 5% CO2.
HL60 cells were plated at 1.2×10^5 cells/ml. Eighteen hours after plating, the cells were administered the drug in ethanol. Four days post-dose, the cells were harvested and a nitro blue tetrazolium reduction assay was performed (Collins et al., 1979; J. Exp. Med. 149:969-974, Appendix A). The percentage of differentiated cells was determined by counting a total of 200 cells and recording the number that contained intracellular black-blue formazan deposits. Verification of differentiation to monocytic cells was determined by measuring phagocytic activity (data not shown). All drug concentrations were tested in duplicate.
This is illustrated by the biological assay results obtained for (20S)-2-methylene-18,19-dinor-1α,25-dihydroxy-vitamin D3 which is summarized in FIGS. 2 through 6. […] Differentiation activity was assessed by a standard differentiation assay, abbreviated as NBT reduction (nitroblue tetrazolium reduction). The assay was conducted according to known procedures, as given, for example, by DeLuca et al U.S. Pat. No. 4,717,721 and Ostrem et al, J. Biol. Chem. 262, 14164, 1987. For the assay, the differentiation activity of the test compounds is expressed in terms of the percent of HL-60 cells having differentiated to normal cells in response to a given concentration of test compound.

The test system of assay [2] is 24-hydroxylase (24OHase) gene promoter in ROS 17/2.8 (bone) cells. In words: Transcription activation, 24-hydroxylase promoter luciferase reporter. As to conditions: luciferase 16 h after dosing, FIG. 3. Format: cell-based. Here is the method:
Transcriptional activity was measured in ROS 17/2.8 (bone) cells that were stably transfected with a 24-hydroxylase (24OHase) gene promoter upstream of a luciferase reporter gene (Arbour et al., 1998). Cells were given a range of doses. Sixteen hours after dosing the cells were harvested and luciferase activities were measured using a luminometer.
“RLU” in FIG. 3 refers to relative luciferase units.
Background: In a reporter assay the amount or activity of a reporter protein is the signal.

Assay [3] in a line: Intestinal calcium transport (everted gut sac). As to conditions: male Sprague-Dawley rats, low calcium diet, four intraperitoneal doses; FIG. 4. The assay is classed as in vivo, rat. The text has this:
(§1) Weanling, male Sprague-Dawley rats were purchased from Harlan. Upon receipt, the animals were identified by individual tail marks and fed a calcium containing (0.47%) diet (Suda et al., Purified Rodent Diet-Diet 11; Appendix A) for one week before switching to the same diet devoid of calcium (0.02%). Water and a purified rodent diet (Diet 11; Appendix A) containing either 0.47% or 0.02% calcium and 0.3% phosphorus were provided ad libitum. Animals were fed the purified diet containing 0.47% calcium for the first week and then the 0.02% calcium containing diet for the next three weeks of the study. The rats were then fed 0.47% calcium containing diet for one week before switching back to 0.02% calcium containing diet for the remainder of the study. During the second week back on 0.02% calcium containing diet, dose administration began. All doses were administered intraperitoneally in 100 microliters of propylene glycol. Four consecutive doses were given approximately 24 hours apart. […] The level of calcium was determined by diluting the serum into 0.1% lanthum chloride and measuring the absorbance on an atomic absorption spectrophotometer (Perkin Elmer Model 3110, Shelton, Conn.). Twenty-four hours after the last dose, intestinal calcium transport was assessed ex vivo using the everted gut sac technique.

For assay [4], the target named is T1, 1α,25-dihydroxyvitamin D pig intestinal nuclear receptor (Rattus norvegicus, UniProt P13053).
T1 construct: Full-length recombinant rat receptor was expressed in E. coli; His tag (C); made in house; host or cells: E. coli BL21 (DE3) Codon Plus RIL
T1 sequence (P13053 1-423): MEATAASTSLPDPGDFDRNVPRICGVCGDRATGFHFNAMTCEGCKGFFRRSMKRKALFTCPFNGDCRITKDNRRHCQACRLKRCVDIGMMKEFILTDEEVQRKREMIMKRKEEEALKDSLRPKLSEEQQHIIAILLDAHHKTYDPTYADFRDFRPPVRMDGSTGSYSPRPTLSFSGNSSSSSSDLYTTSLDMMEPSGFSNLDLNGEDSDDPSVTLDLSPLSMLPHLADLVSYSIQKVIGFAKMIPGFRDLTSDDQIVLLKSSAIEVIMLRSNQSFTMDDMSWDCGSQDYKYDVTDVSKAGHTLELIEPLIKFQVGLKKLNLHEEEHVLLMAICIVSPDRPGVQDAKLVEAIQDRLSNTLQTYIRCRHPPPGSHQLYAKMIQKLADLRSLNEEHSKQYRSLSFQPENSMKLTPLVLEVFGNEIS
In words: Competitive VDR binding. The note with it: competition with 3H-1,25(OH)2D3; FIG. 1. Here is the method:
Competitive binding of the analogs to the porcine intestinal receptor was carried out by the method described by Dame et al (Biochemistry 25, 4523-4534, 1986).
Full-length recombinant rat receptor was expressed in E. coli BL21 (DE3) Codon Plus RIL cells and purified using two different column chromatography systems. The first system was a nickel affinity resin that utilized the C-terminal histidine tag on this protein. The protein that was eluted from this resin was further purified using ion exchange chromatography (S-Sepharose Fast Flow). Aliquots of the purified protein were quick frozen in liquid nitrogen and stored at −80° C. until use. […]
Unlabeled ligands were dissolved in ethanol and the concentrations determined using UV spectrophotometry. […]
Radiolabeled and unlabeled ligands were added to 100 mcl of the diluted protein, mixed and incubated overnight on ice to reach binding equilibrium. […] Total binding was determined from the tubes containing only radiolabeled ligand. The percentage of competition was calculated by subtracting the number of dpm remaining in the hydroxylapatite pellet from the total number of dpm bound, dividing by the total number of dpm bound and multiplying by one hundred. Duplicate tubes were prepared and analyzed for each test concentration.

The nature of assay [5]: Bone calcium mobilization (serum calcium). Format: in vivo, rat. The note with it: male Sprague-Dawley rats, low calcium diet, four intraperitoneal doses; FIGS. 5 and 6.
Description: as §1, with “diet, the animals were tail-bled (baseline serum calcium) and then” for “diet,”, “was initiated.” for “began.”, “apart. Twenty-four hours after the last dose, blood was collected from the tail artery of each experimental animal.” for “apart.”, “Conn.).” for “Conn.). Twenty-four hours after the last dose, intestinal calcium transport was assessed ex vivo using the everted gut sac technique.”

For the compound `C=C1/C(=C\C=C2/CCC[C@]3(C)[C@@H]([C@H](C)CCCC(C)(C)O)CC[C@@H]23)C[C@@H](O)C[C@@H]1O` [C001, 1α,25-dihydroxyvitamin D3, reference compound], the “percent of HL-60 cells induced to differentiate” value in assay [1] was about 90%.

For `C=C1[C@H](O)CC(=C/C=C2\CCC[C@@H]3C([C@@H](C)CCCC(C)(C)O)CC[C@@H]23)C[C@H]1O` (stereo partly drawn) [DP035, (20S)-2-methylene-18,19-dinor-1α,25-dihydroxyvitamin D3], the “transcriptional activity compared with 1α,25-dihydroxyvitamin D3” value in assay [2] is listed as “higher transcriptional activity”. Moreover, the “intestinal calcium transport activity compared with 1α,25-dihydroxyvitamin D3” value in assay [3] is recorded as “as active as”. In addition, in assay [4], the “activity in binding to the 1α,25-dihydroxyvitamin D3 receptor” value is given as “very active”. In addition, the “potency in promoting differentiation of leukemia cells compared with 1α,25-dihydroxyvitamin D3” value in assay [1] (HL-60 cells) is on record as “more potent”. For the same compound, in assay [1], the “percent of HL-60 cells induced to differentiate” value is reported as “the same degree of differentiation”. Besides, the “ability to mobilize calcium from bone compared with 1α,25-dihydroxyvitamin D3” value in assay [5] is recorded as “clearly not as active”.
